Assay results taken from US8617872B2, “Compositions for culturing spirochetes” (priority 2000, dated 2013).

What was measured:
[1] = test system: A. lwoffii; test: Antibiotic susceptibility test (MICROSCAN or disc diffusion), control organism A. lwoffii; type: cell-based; details: total isolates 1
[2] = test system: Treponema isolate; test: Antimicrobial susceptibility test (MICROSCAN plates) of a patient's Treponema isolate; type: cell-based; details: for RESULT (antibiotic susceptibility): Treponema infected patient's isolate, MICROSCAN plates, 35° C., 16-20 hours; for susceptibility profile from a specific human patient: text restating Example 7
Method: For susceptibility testing, the organisms harvested could be assayed using any suitable susceptibility assay (See, Example 7). In some embodiments of the present invention, MICROSCAN antibiotic susceptibility plates were inoculated and incubated. Following incubations, plates were scanned for growth and respective sensitivity reaction. […] For the results to be considered reliable, the no growth of organisms was accepted in the negative control well, while the positive control well had to have sufficient growth to be read. In some embodiments of the present invention, to confirm the presence or absence of growing spirochetes in the growth well, aliquots from the growth well were reinoculated with fresh growth media and after an incubation time (e.g., 7-10 days) the presence of the organisms was confirmed (e.g., by phase contrast microscopy or direct fluorescent antibody staining).
(§1) This example describes the preparation of a pellet used for antimicrobial susceptibility testing of a culture sample. The procedure begins with a culture (e.g., prepared in the manner described in Example 2), where serum from a patient is inoculated in GSI-1 media and allowed to grow. In order to form pellet, an aliquot of this culture sample is placed in a microcentrifuge tube along with 10% SDS solution, and centrifuged at 14,000 g to disrupt the spirochetes and maximize the number of available eptiopic sites. The disrupted spirochetes were then cultured in an alternative growth medium made up of one part GSI-1 medium, one part 6.5% lactalbumin hydrolysate, one part 2% brain heart infusion, one part 10% pluronic fluid, and one part of the isolated (disrupted) spirochetes. This inoculated alternative growth medium was then allowed to incubate in the closed micro centrifuge tube until a distinctive pellet was observed (typically 7-14 days).
This example describes an antimicrobial susceptibility test performed for a human patient. The patient had previously been testing using GSI-1 medium (e.g., as described in Example 2) for the presence of any spirochetes. […] This culture sample was then transferred to a microcentrifuge tube, and a pellet for antimicrobial susceptibility testing was prepared as described in Example 6.
(§2) Following the observation of pellet formation, the tube was vortexed and incubated at 35° C. until a MacFarlane standard of between 8 to 12% turbidity was achieved. MICROSCAN antibiotic susceptibility microtiter plates were then inoculated with (e.g., 110 μl of) inoculum and allowed to incubate at 35° C. for 16-20 hours. The microtiter plates were then scanned for growth and respective sensitivity reaction (both the control well and the growth well). Table 2 below lists the various antimicrobials tested with this sample and whether growth of the organism was inhibited (susceptible) or whether the growth of the organism was not inhibited (resistant).

[3] = test system: Leptospira; test: Susceptibility testing of Leptospira isolated from a patient with symptoms of multiple sclerosis; type: cell-based; details: for Antibiotic Susceptibility Results, SERUM: Leptospira culture from serum of multiple sclerosis patient; for Antibiotic Susceptibility Results, URINE: Leptospira culture from urine of multiple sclerosis patient
Method: This example describes the preparation of a pellet used for antimicrobial susceptibility testing of a culture sample. […] In order to form pellet, an aliquot of this culture sample is placed in a microcentrifuge tube along with 10% SDS solution, and centrifuged at 14,000 g to disrupt the spirochetes and maximize the number of available eptiopic sites. […] This inoculated alternative growth medium was then allowed to incubate in the closed micro centrifuge tube until a distinctive pellet was observed (typically 7-14 days).
MICROSCAN antibiotic susceptibility microtiter plates were then inoculated with (e.g., 110 μl of) inoculum and allowed to incubate at 35° C. for 16-20 hours. The microtiter plates were then scanned for growth and respective sensitivity reaction (both the control well and the growth well).

[4] = test system: Y. entero gp.; test: Antibiotic susceptibility test (MICROSCAN or disc diffusion), control organism Y. entero gp.; type: cell-based; details: total isolates 1
[5] = test system: Borrelia; test: Antibiotic susceptibility test (MICROSCAN or disc diffusion) of patient samples positive for Borrelia; type: cell-based; details: total isolates 519
From the text: as §1, §2
(§3) This Example describes the results for susceptibility tests that were performed on a large number of patient samples positive for either Borrelia or Leptospira. […] The results presented in Table 3 reveal the varied response of different types of spirochetes to different antibiotics.

[6] = test system: Borrelia and Leptospira; test: Susceptibility of several hundred patient samples having Borrelia and Leptospira infections (population effectiveness); type: cell-based
Method: In these experiments, several hundred patient samples were cultured on GSI-1 (e.g., as described in Example 2). These culture samples were then used to produce pellets for antimicrobial susceptibility testing as described in Example 6. The antimicrobial susceptibility tests were then carried out on each sample as described in Example 7 or by the disc diffusion method (e.g., instead of MICROSCAN) with the antimicrobials listed below in Table 3.

[7] = test system: Leptospira; test: Antibiotic susceptibility test (MICROSCAN or disc diffusion) of patient samples positive for Leptospira; type: cell-based; details: total isolates 276
From the text: as §1, §2, §3

[8] = test system: Leptospira; test: Susceptibility testing of Leptospira isolated from a patient with symptoms of rheumatoid arthritis; type: cell-based; details: for Antibiotic Susceptibility Results, SERUM: Leptospira culture from serum of rheumatoid arthritis patient; for Antibiotic Susceptibility Results, URINE: Leptospira culture from urine of rheumatoid arthritis patient
From the text: as §1
as §2, with “well).” for “well). Table 2 below lists the various antimicrobials tested with this sample and whether growth of the organism was inhibited (susceptible) or whether the growth of the organism was not inhibited (resistant).”
This Example describes the diagnosis and treatment of a human patient with symptoms of rheumatoid arthritis. In particular, serum and urine samples from this patient were initially cultured on GSI-1 (e.g., as described in Example 2), and screened for the presence of spirochetes (e.g., as described in Example 3). […] These cultures were then used to produce pellets for antimicrobial susceptibility testing (e.g., as described in Example 6). The antimicrobial susceptibility tests were then carried out on each sample (e.g., as described in Example 7) with the antimicrobials listed below in Table 5.

[9] = test system: Tatumella; test: Antibiotic susceptibility test (MICROSCAN or disc diffusion), control organism Tatumella; type: cell-based; details: total isolates 2
From the text: as §1, §2, §3

[10] = test system: E. coli; test: Antibiotic susceptibility test (MICROSCAN or disc diffusion), control organism E. coli; type: cell-based; details: total isolates 1
[11] = test system: Pseudomonas; test: Antibiotic susceptibility test (MICROSCAN or disc diffusion), control organism Pseudomonas; type: cell-based; details: total isolates 1
[12] = test system: Borrelia burgdorferi infection in a human patient; test: Treatment of a human patient with Borrelia burgdorferi infection; type: in vivo; details: human patient with neurological distress, Borrelia burgdorferi positive

Compound: C[C@H]1[C@H](NC(=O)/C(=N\OC(C)(C)C(=O)O)c2csc(N)n2)C(=O)N1S(=O)(=O)O [Aztreonam]
- Antibiotic Susceptibility Test Results, A. lwoffii [1]: 100%
- RESULT (antibiotic susceptibility) [2]: Susceptible
- susceptibility profile from a specific human patient [2]: sensitive
- Antibiotic Susceptibility Results, SERUM [3]: Resistant
- Antibiotic Susceptibility Results, URINE [3]: Resistant
- Antibiotic Susceptibility Test Results, Y. entero gp. [4]: 0%
- Antibiotic Susceptibility Test Results, Borrelia [5]: 11%
- effectiveness in the population [6]: less than 20%
- Antibiotic Susceptibility Test Results, Leptospira [7]: 15%
- Antibiotic Susceptibility Results, SERUM [8]: Resistant
- Antibiotic Susceptibility Results, URINE [8]: Resistant
- Antibiotic Susceptibility Test Results, Tatumella [9]: 0%
- Antibiotic Susceptibility Test Results, E. coli [10]: 100%
- Antibiotic Susceptibility Test Results, Pseudomonas [11]: 100%

Compound: CO/N=C(\C(=O)N[C@@H]1C(=O)N2C(C(=O)O)=C(CSc3nc(=O)c(=O)[nH]n3C)CS[C@H]12)c1csc(N)n1 [ceftriaxone]
- patient response to treatment [12]: responded well until the medication was stopped

Compound: Amoxicillin/Clavulanate [Augmentin]
- RESULT (antibiotic susceptibility) [2]: Resistant
- susceptibility profile from a specific human patient [2]: resistance
- Antibiotic Susceptibility Results, SERUM [3]: Resistant
- Antibiotic Susceptibility Results, URINE [3]: Resistant
- Antibiotic Susceptibility Test Results, Y. entero gp. [4]: 100%
- Antibiotic Susceptibility Test Results, Borrelia [5]: 90%
- effectiveness in the population [6]: over 80%
- Antibiotic Susceptibility Test Results, Leptospira [7]: 89%
- Antibiotic Susceptibility Results, SERUM [8]: Susceptible
- Antibiotic Susceptibility Results, URINE [8]: Susceptible
- Antibiotic Susceptibility Test Results, Tatumella [9]: 100%
- Antibiotic Susceptibility Test Results, E. coli [10]: 100%
